Our source for the TGI values is PubChem BioAssay (NCI).

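How tested: cells in 96-well plates exposed to compound for 48 hours at five concentrations. TGI: total growth inhibition.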

The subject of the assay is P388 leukemia. Put plainly: NCI tumour cell line growth inhibition, 48 h.

`O=C1NC2(CCCCC2)C(=O)N1CCN(CCCl)CCCl` had a TGI of 189 µM.
